Tested on: Mycobacterium tuberculosis strain EH4.0 expressing green-fluorescent protein (GFP)
Assay: microbe, parasite or virus in culture
Format: cell-based
Conditions: Test 1 (and/or Test 2), read-out: pIC50 (converted)
O=C(NCc1ccc(N2CCN(S(=O)(=O)C(F)(F)F)C=N2)c(F)c1)c1c(C(F)F)nc2n1CCCC2 [Compound 147] gave an IC50 of 3.8 nM. For CCc1nc2ccc(Cl)cn2c1C(=O)NCc1ccc(N2CCN(S(=O)(=O)C(F)(F)F)C(C3CC3)=N2)cc1 [Compound 230], the IC50 was 6.61 nM. CCc1nc2ncc(C)cn2c1C(=O)NCc1ccc(N2CCN(S(=O)(=O)C(F)(F)F)C(C3CC3)=N2)cc1 [Compound 228] showed an IC50 of 1.45 nM. With CCc1nc2ncc(C)cn2c1C(=O)NCc1ccc(N2CCN(S(=O)(=O)C(F)(F)F)C(C)=N2)cc1 [Compound 250] the IC50 was 1.58 nM. Work on CCc1nc2ccc(C)cn2c1C(=O)NCc1ccc(N2CCN(S(=O)(=O)C(F)(F)F)C(C3CC3)=N2)cc1 [Compound 229] yielded an IC50 of 1.07 nM. CCc1nc2ccc(C)cn2c1C(=O)NCc1ccc(N2CCN(S(=O)(=O)C(F)(F)F)C(C3CCC3)=N2)cc1 [Compound 237] showed an IC50 of 5.75 nM. With CC(C)C1=NN(c2ccc(CNC(=O)c3c(C(F)(F)F)nc4n3CCCC4)cc2F)CCN1S(=O)(=O)C(F)(F)F [Compound 239] the IC50 was 8.91 nM. CCc1nc2n(c1C(=O)NCc1ccc(N3CCN(S(=O)(=O)C(F)(F)F)C(C(C)C)=N3)c(F)c1)CCCC2 [Compound 242] gave an IC50 of 2.4 nM.

Tested on: not given
Assay: not given
Conditions: not given
With CCc1nc2ccc(OC)cn2c1C(=O)NCc1ccc(N2CCN(S(=O)(=O)C(F)(F)F)C=N2)cc1 [Compound 42] the melting point was 147.57 °C. For CCc1nc2ccc(Cl)cn2c1C(=O)NCc1ccc(N2CCN(S(=O)(=O)C(F)(F)F)C(C)=N2)cc1 [Compound 21], the melting point was 157.49 °C. CCc1nc2ccc(Cl)cn2c1C(=O)NCc1ccc(N2CCN(S(=O)(=O)C(F)(F)F)C(CCOC)=N2)cc1 [Compound 55] gave a melting point of 193.51 °C. With CCc1nc2ncc(Cl)cn2c1C(=O)NCc1ccc(N2CCN(S(=O)(=O)C(F)(F)F)C(OC)=N2)cc1 [Compound 27] the melting point was 174.88 °C. In the case of CCc1nc2n(c1C(=O)NCc1ccc(N3CCN(S(=O)(=O)C(F)(F)F)C=N3)cc1)CCCC2 [Compound 3], the melting point is reported as 189.22 °C. Compound CCc1nc2cccc(Cl)n2c1C(=O)NCc1ccc(N2CCN(S(=O)(=O)C(F)(F)F)C(OC)=N2)cc1 [Compound 70] has a melting point of 138.71 °C. Work on COc1ccn2nc(C)c(C(=O)NCc3ccc(N4CCN(S(=O)(=O)C(F)(F)F)C=N4)cc3)c2c1 [Compound 14] yielded a melting point of 192.27 °C. Compound CCc1nc2cc(OC)ccn2c1C(=O)NCc1ccc(N2CCN(S(=O)(=O)C(F)(F)F)C(OC)=N2)c(F)c1 [Compound 75] has a melting point of 135.16 °C. Work on CCc1nc2ccc(Cl)cn2c1C(=O)NCc1ccc(N2CCN(Cc3nc(C(F)(F)F)cs3)C=N2)cc1 [Compound 69] yielded a melting point of 163.46 °C. CCc1nc2ccc(C#N)cn2c1C(=O)NCc1ccc(N2CCN(S(=O)(=O)C(F)(F)F)C=N2)cc1 [Compound 72] gave a melting point of 216.25 °C. With CCC1=NN(c2ccc(CNC(=O)c3c(CC)nc4ccc(Cl)cn34)cc2)CCN1S(=O)(=O)C(F)(F)F [Compound 2] the melting point was 178.31 °C. CCc1nc2ccc(Cl)cn2c1C(=O)NCc1ccc(N2CCN(S(=O)(=O)C(F)(F)F)C=N2)cc1OC [Compound 22] showed a melting point of 175.12 °C. For CCc1nc2cc(Cl)c(OC)cn2c1C(=O)NCc1ccc(N2CCN(S(=O)(=O)C(F)(F)F)C=N2)cc1 [Compound 67], the melting point was 206.99 °C. CCc1nc2ncc(Cl)cn2c1C(=O)NCc1ccc(N2CCN(C(C)=O)C=N2)cc1 [Compound 24] gave a melting point of 258.01 °C. With CCc1nc2ccc(Cl)cn2c1C(=O)NCc1ccc(N2CCN(S(=O)(=O)CC(C)C)C=N2)cc1 [Compound 17] the melting point was 196.82 °C. CCc1nc2ccc(OC)cn2c1C(=O)NCc1ccc(N2CCN(S(=O)(=O)C(F)(F)F)C(OC)=N2)c(F)c1 [Compound 48] showed a melting point of 74.6 °C. In the case of CCc1nc2c(Cl)c(OC)ccn2c1C(=O)NCc1ccc(N2CCN(S(=O)(=O)C(F)(F)F)C=N2)cc1 [Compound 39], the melting point is reported as 211.19 °C. Compound CCc1nc2cc(OC)c(Cl)cn2c1C(=O)NCc1ccc(N2CCN(S(=O)(=O)C(F)(F)F)C=N2)cc1 [Compound 64] has a melting point of 193.79 °C. Compound CCc1nc2ncc(COC)cn2c1C(=O)NCc1ccc(N2CCN(S(=O)(=O)C(F)(F)F)C=N2)cc1 [Compound 33] has a melting point of 225.92 °C. With CCc1nc2ccc(Cl)cn2c1C(=O)NCc1ccc(N2CCN(S(=O)(=O)C(F)(F)F)C(OC)=N2)c(F)c1 [Compound 37] the melting point was 193.36 °C. With CCc1nc2ccc(Cl)cn2c1C(=O)NCc1ccc(N2CCN(C)C(C)=N2)cc1 [Compound 59] the melting point was 202.94 °C. CCc1nc2ncc(Cl)cn2c1C(=O)NCc1ccc(N2CCN(S(=O)(=O)CC(C)C)C=N2)cc1 [Compound 23] gave a melting point of 207.21 °C. For CCc1nc2cc(OC)ccn2c1C(=O)NCc1ccc(N2CCN(S(=O)(=O)C(F)(F)F)C=N2)cc1 [Compound 51], the melting point was 185.08 °C. For CCc1nc2ccc(Cl)cn2c1C(=O)NCc1ccc(N2CCN(C(C)=O)C=N2)cc1 [Compound 18], the melting point was 245.36 °C. With CCc1nc2n(c1C(=O)NCc1ccc(N3CCNC=N3)cc1)CCCC2 [Compound 57] the melting point was 211.47 °C. Work on CCc1nc2cc(OC)c(Cl)cn2c1C(=O)NCc1ccc(N2CCN(S(=O)(=O)C(F)(F)F)C(OC)=N2)c(F)c1 [Compound 46] yielded a melting point of 176.82 °C. Work on CCc1nc2ccc(Cl)cn2c1C(=O)NCc1ccc(N2CCN(C=O)C=N2)cc1 [Compound 38] yielded a melting point of 255.93 °C. CCc1nc2ncc(F)cn2c1C(=O)NCc1ccc(N2CCN(S(=O)(=O)C(F)(F)F)C=N2)cc1 [Compound 10] showed a melting point of 171.42 °C. CCc1nc2ccc(CCCOC)cn2c1C(=O)NCc1ccc(N2CCN(S(=O)(=O)C(F)(F)F)C=N2)cc1 [Compound 63] gave a melting point of 159.95 °C. CCc1nc2ccc(Cl)cn2c1C(=O)NCc1ccc(N2CCN(C)C=N2)cc1 [Compound 15] gave a melting point of 206.66 °C. CCc1nc2ccc(Cl)cn2c1C(=O)NCc1ccc(N2CCN(c3nccs3)C=N2)cc1 [Compound 76] showed a melting point of 232.4 °C. Work on CCc1nc2ccc(Cl)cn2c1C(=O)NCc1cc(F)c(N2CCN(S(=O)(=O)C(F)(F)F)C=N2)c(F)c1 [Compound 35] yielded a melting point of 152.93 °C. CCc1nc2ccc(N3CCCC3)cn2c1C(=O)NCc1ccc(N2CCN(S(=O)(=O)C(F)(F)F)C=N2)cc1 [Compound 65] gave a melting point of 228.15 °C. In the case of CCc1nc2cc(Cl)c(OC)cn2c1C(=O)NCc1ccc(N2CCN(S(=O)(=O)C(F)(F)F)C(OC)=N2)cc1 [Compound 45], the melting point is reported as 155.29 °C. With CCc1nc2ccc(Cl)cn2c1C(=O)NCc1ccc(N2CCNC=N2)cc1 [Compound 56] the melting point was 236.36 °C. In the case of CCc1nc2ncc(C(=O)NC)cn2c1C(=O)NCc1ccc(N2CCN(S(=O)(=O)C(F)(F)F)C=N2)cc1 [Compound 61], the melting point is reported as 193.44 °C. In the case of CCc1nc2ccc(Cl)cn2c1C(=O)NCc1ccc(N2CCN(S(=O)(=O)CCOC)C=N2)cc1 [Compound 19], the melting point is reported as 196.34 °C. With CCc1nc2ccc(Cl)cn2c1C(=O)NCc1ccc(N2CCN(C(=O)C(F)(F)F)C=N2)cc1 [Compound 66] the melting point was 211.3 °C. Compound O=C(NCc1ccc(N2CCN(S(=O)(=O)C(F)(F)F)C=N2)cc1)c1c(C2CC2)nc2ncc(Cl)cn12 [Compound 7] has a melting point of 208.41 °C. With CCc1nc2cc(OC)ccn2c1C(=O)NCc1ccc(N2CCN(S(=O)(=O)C(F)(F)F)C(OC)=N2)cc1 [Compound 52] the melting point was 164.28 °C.
